One assay relates to RBL-2H3 cells. The experiment in a line: Fluorescence-based assay of store-operated calcium entry in RBL-2H3 cells. The assay is classed as cell-based, rat. Conditions: Rattus norvegicus, RBL-2H3; Table iv; thapsigargin store depletion; 50% inhibition of Upslope; read-out: RBL-2H3 (IC50, μmol). In short, it runs like this:
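RBL-2H3 cells loaded with 1.5 μM Fluo-4-AM, preincubated with compound 5 min at RT in Ca2+-free HBSS, stores depleted with thapsigargin 25 min. Calcium re-addition (final from 12 mM 12× stock) read on FLIPR; IC50 from inhibition of fluorescence rise at 7 s (Upslope).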

For a further assay, the target named is T1, Orai1/STIM1 (Homo sapiens, UniProt Q96D31).
T1 construct: expressed in transfected cells; host or cells: HEK-293
T1 sequence (Q96D31 whole entry): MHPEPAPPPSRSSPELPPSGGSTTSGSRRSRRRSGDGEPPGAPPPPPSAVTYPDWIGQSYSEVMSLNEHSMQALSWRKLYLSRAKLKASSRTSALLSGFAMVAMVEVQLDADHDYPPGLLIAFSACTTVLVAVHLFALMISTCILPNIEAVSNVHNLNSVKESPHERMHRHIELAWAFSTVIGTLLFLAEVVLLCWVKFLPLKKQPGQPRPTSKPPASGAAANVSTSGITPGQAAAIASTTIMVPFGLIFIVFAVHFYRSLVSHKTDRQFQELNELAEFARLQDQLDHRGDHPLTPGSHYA
Briefly: Fluorescence-based assay of store-operated calcium entry in Orai1/STIM1 stable cells. The format is cell-based. Conditions: Table iv; HEK-293 cells stably expressing human STIM1 and Orai1; 50% inhibition of Peak-Basal fluo-4 signal; read-out: Orai1/STIM1 (IC50, μmol). In a few lines:
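HEK-293 cells stably expressing human STIM1 and Orai1, fluo-4-AM loaded, preincubated 30 min at RT with compound in Ca2+-free HBSS. Calcium entry triggered by CaCl2 addition, read on FLIPR; IC50 is concentration inhibiting 50% of peak-minus-baseline fluorescence.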

Another assay deals with STIM1 and Orai1 (Homo sapiens, UniProt Q96D31). Conditions: HEK293 cells co-expressing STIM1 and Orai1; cited from earlier work.
Chain of STIM1 and Orai1 (Q96D31 whole entry, species assumed): as the sequence (Q96D31 whole entry) above
Assay [1] concerns Jurkat cells. Conditions: cited from earlier work.
In assay [2] the test system is Jurkat cells. Conditions: cited from earlier work. The source holds these as a separate data set.

A value given as a limit tells only on which side of the number the result lay.

For `Cn1nc(C(F)(F)F)cc1-c1ccc(NC(=O)c2c(F)cccc2F)cc1F`, the IC50 with RBL-2H3 cells and at Orai1/STIM1 was below 0.6 µM throughout. As for `Cn1nc(C(F)(F)F)cc1-c1ccc(NC(=O)c2ccccc2F)cc1F`, the IC50 in the assay on RBL-2H3 cells and on Orai1/STIM1 was below 0.6 µM in each case. Consider `Cc1cccc(F)c1C(=O)Nc1ccc(-c2cc(C(F)(F)F)nn2C)c(F)c1`, for which the IC50 with RBL-2H3 cells and on Orai1/STIM1 was below 0.6 µM each time.

Consider `Cn1nc(C(F)(F)F)cc1-c1ccc(NC(=O)c2c(F)cccc2F)cc1`, for which the IC50 in the assay with RBL-2H3 cells and at Orai1/STIM1 was below 0.6 µM in each case. Regarding `Cn1nc(C(F)(F)F)cc1-c1ccc(NC(=O)c2ccccc2F)cc1`, the IC50 in the assay with RBL-2H3 cells and at Orai1/STIM1 was below 0.6 µM throughout. Turning to `Cn1nc(C(F)(F)F)cc1-c1ccc(NC(=O)c2ccc(F)cc2F)cc1`, the IC50 in the assay with RBL-2H3 cells and at Orai1/STIM1 was below 0.6 µM in each case. With `Cn1nc(C(F)(F)F)cc1-c1ccc(NC(=O)c2c(F)cncc2F)cc1`, the IC50 in the assay on RBL-2H3 cells and on Orai1/STIM1 was below 0.6 µM throughout.

As for `O=C(Nc1ccc(-n2nc(C(F)(F)F)cc2C(F)(F)F)cc1)c1ccncc1F`, the IC50 in the assay on RBL-2H3 cells is below 0.6 µM; at Orai1/STIM1, 0.6 to 1.2 µM. Consider `O=C(Nc1ccc(-n2nc(C(F)(F)F)cc2C(F)(F)F)cc1)c1c(F)cncc1F`, for which the IC50 in the assay on RBL-2H3 cells was below 0.6 µM; on Orai1/STIM1 it was above 1.2 µM. For `Cc1cc2c(cc1-c1ccc(NC(=O)c3c(F)cccc3F)cc1)OC(F)(F)O2` the same measures were below 0.6 µM and above 1.2 µM. In the same order, the values of `Cc1cc2c(cc1-c1ccc(NC(=O)c3ccccc3F)cc1)OC(F)(F)O2` are below 0.6 µM and 0.6 to 1.2 µM. Turning to `Cc1cc2c(cc1-c1ccc(NC(=O)c3c(F)cncc3F)cc1)OC(F)(F)O2`, the IC50 with RBL-2H3 cells was below 0.6 µM; on Orai1/STIM1 it was above 1.2 µM. For `Cc1cc2c(cc1-c1ccc(NC(=O)c3ccncc3F)cc1)OC(F)(F)O2` the same measures were below 0.6 µM and 0.6 to 1.2 µM. Regarding `Cc1cc2c(cc1-c1ccc(NC(=O)c3cncc(F)c3)cc1)OC(F)(F)O2`, the results for the IC50 in the assay on RBL-2H3 cells and at Orai1/STIM1 were below 0.6 µM and 0.6 to 1.2 µM, respectively.

In the case of `Cc1cc2c(cc1-c1ccc(NC(=O)c3snnc3C)cc1)OC(F)(F)O2`, the IC50 in the assay on RBL-2H3 cells was below 0.6 µM; on Orai1/STIM1, 0.6 to 1.2 µM. For `Cc1cc2c(cc1-c1ccc(NC(=O)c3scnc3C)cc1)OC(F)(F)O2` the same measures were below 0.6 µM and 0.6 to 1.2 µM. For `Cc1cc2c(cc1-c1ccc(NC(=O)c3c(F)cccc3F)cc1F)OC(F)(F)O2` the same measures were below 0.6 µM and above 1.2 µM. In the same order, the values of `Cc1cc2c(cc1-c1ccc(NC(=O)c3ccccc3F)cc1F)OC(F)(F)O2` are below 0.6 µM and above 1.2 µM. On to `Cc1cc2c(cc1-c1ccc(NC(=O)c3c(C)cccc3F)cc1F)OC(F)(F)O2`, for which the IC50 was below 0.6 µM with RBL-2H3 cells and above 1.2 µM at Orai1/STIM1.

Turning to `Cc1cc2c(cc1-c1ccc(NC(=O)c3c(F)cncc3F)cc1F)OC(F)(F)O2`, the IC50 was below 0.6 µM with RBL-2H3 cells and above 1.2 µM at Orai1/STIM1. For `Cn1nc(C(F)(F)F)cc1-c1ccc(NC(=O)c2c(F)ccc(F)c2F)cc1F` the same measures were below 0.6 µM and 0.6 to 1.2 µM.

Turning to `Cc1ccccc1C(=O)Nc1ccc(-c2cc(C(F)(F)F)nn2C)c(F)c1`, the IC50 in the assay with RBL-2H3 cells and on Orai1/STIM1 was below 0.6 µM throughout. Consider `Cn1nc(C(F)(F)F)cc1-c1ccc(NC(=O)c2c(F)cc(F)cc2F)cc1`, for which the IC50 with RBL-2H3 cells and at Orai1/STIM1 was below 0.6 µM each time. For `Cn1nc(C(F)(F)F)cc1-c1ccc(NC(=O)c2c(F)ccc(F)c2F)cc1`, the IC50 in the assay with RBL-2H3 cells and on Orai1/STIM1 was below 0.6 µM each time. In the case of `Cn1nc(C(F)(F)F)cc1-c1ccc(NC(=O)c2c(Cl)cnn2C)cc1`, the IC50 in the assay on RBL-2H3 cells and at Orai1/STIM1 was below 0.6 µM in each case. `Cc1cc(C(F)(F)F)nn1-c1ccc(NC(=O)c2ccccc2F)cc1`: the IC50 with RBL-2H3 cells and at Orai1/STIM1 was below 0.6 µM throughout. With `Cc1cc(C(F)(F)F)nn1-c1ccc(NC(=O)c2c(F)cccc2F)cc1`, the IC50 was below 0.6 µM in the assay with RBL-2H3 cells and 0.6 to 1.2 µM at Orai1/STIM1. Regarding `Cc1cc(C(F)(F)F)nn1-c1ccc(NC(=O)c2ccc(F)cc2F)cc1`, the IC50 with RBL-2H3 cells and at Orai1/STIM1 was below 0.6 µM each time. As to `Cc1nnsc1C(=O)Nc1ccc(-n2nc(C(F)(F)F)cc2C)cc1`, the values for the IC50 with RBL-2H3 cells and on Orai1/STIM1 were below 0.6 µM and 0.6 to 1.2 µM, respectively. As to `Cc1cc(C(F)(F)F)nn1-c1ccc(NC(=O)c2c(F)cncc2F)cc1`, the figures for the IC50 with RBL-2H3 cells and on Orai1/STIM1 were below 0.6 µM and above 1.2 µM, respectively. In the same order, the values of `Cc1cc(C(F)(F)F)nn1-c1ccc(NC(=O)c2c(F)ccc(F)c2F)cc1` are below 0.6 µM and above 1.2 µM. In the case of `NCCOB(c1ccccc1)c1ccccc1` [2-aminoethoxydiphenylborate], the “block of store dependent Ca2+ entry” value on STIM1 and Orai1 is recorded as “completely blocked”. As for `Cc1nnsc1C(=O)Nc1ccc(-n2nc(C(F)(F)F)cc2C(F)(F)F)cc1` [BTP-2], the inhibition of proliferation result in the assay with Jurkat cells [1] is on record as “inhibits”. For the same molecule, the “inhibition of SOCE” value in the assay on Jurkat cells [2] is “inhibits”.

Source of the values: US20140256771A1, “COMPOUNDS THAT MODULATE INTRACELLULAR CALCIUM” (CalciMedica, Inc., priority 2011, published 2014).
